Experimental data taken from patent US20140163082A1, “PYRAZOLYL COMPOUNDS FOR USE IN REVERSING REACTIVE GLIOSIS” (priority 2011, published 2014).

How the values were obtained:
[1] = system: hRMVECs cocultured with rMC-1 cells; assay: Cell proliferation in a co-culture system model (MTT); format: cell-based, human; conditions: rMC-1 cells treated with YC-1 100 μM for 24 hours, normoxic and hypoxic conditions
Method: To test the influence of Móller cells [rMC-1] on the hRMVECs proliferation, rMC-1 [2×10^5 cells cm—2] were plated in a transwell insert [Millipore, Billerica, Mass.] with […] pores and allowed to adhere overnight in 150 μL of CS—C complete medium [Cell Systems, Kirkland, Wash.], supplemented with 10% FBS and incubated at 37° C. under normoxic [5% CO2/95% air]. The rMC-1 cells were then incubated under normoxic [5% CO2/95% air], or hypoxic conditions. To establish hypoxic conditions, cells were placed in airtight chambers [BioSpherix, Redfield, N.Y.] that were flushed with a gas mixture of 5% CO2 and 95% N2. Oxygen concentrations within these chambers were maintained at 1.2% using Pro-Ox Model 110 O2 regulators. After treating the r-MC-1 cells with YC-1 [100 μM] for 24 hours, the insert was then placed into 24 well-plates, in which hRMVECs were plated at 5×10^3 cells cm^−2 and allowed to adhere overnight [FIG. 7B]. hRMVECs proliferation was evaluated using 3, […]-2,5-diphenyl tetrazolium bromide [MTT] colorimetric assay [Mosmann,1983], at 24, 48, 72, and 96 hours after coculture. During the last 4 hours of each day, […] of 5 mg/ml MTT [Millipore, Billerica, Mass.] was added in each well. Formed Formazan crystals were dissolved in […] DMSO and optical density was recorded at 492 nm. Experiments were performed on at least three independent occasions. […]

[2] = system: hRMVECs cocultured with rMC-1 cells; assay: Cell migration in a co-culture system model (transwell); format: cell-based, human; conditions: rMC-1 cells treated with YC-1 100 μM, normoxic and hypoxic conditions
Method: Migration assay of hRMVECs was carried out using the transwell insert with […] pore size. The inserts were coated with Extracellular matrix [ECM] [Millipore, Billerica, Mass.] and airdry up. Chemotaxis was induced by the control r-MClcells or the r-MC1 cells that were treated with YC-1 [100 μM], which were situated in the lower compartment. hRMVECs suspension [final concentration, 5×10^4 cells/well] was added to the upper compartment [FIG. 7B]. After incubated for 24 hours, the filters were washed and then fixed and stained with crystal violet [0.5% crystal violet and 20% methanol] for 30 min at room temperature. The filters were washed with distilled water, and the cells on the upper surface of the inserts were wiped with a cotton swab. The number of cells per field that migrated to the lower surface of the filters was determined microscopically. Five randomly chosen fields were counted per filter. Data were presented as a number of migrated cells [**P<0.01].

[3] = system: rMC-1 cells; assay: Western blot, rMC-1; format: cell-based; conditions: rMC-1, hypoxia 48 hours, YC-1 25-100 μM
Method: Cells were placed in airtight chambers [BioSpherix, Redfield, N.Y.] and the O2 tension was maintained at 1.2% by using Pro-Ox Model 110 O2 regulator [BioSpherix, Redfield, N.Y.]. The chamber was purged with a gas mixture of 5.32% CO2, and 93.48% N2. […] Müller cells [rMC-1] and […] cells were seeded overnight in 6-well plates [10^5 cells/well]. Cells were treated with either YC-1 [25-100 μM] or DMSO [0.2% v/v] for 48 hours under normoxic or hypoxic environments. Reactions were terminated by addition of lysis buffer [Cell Signaling, Beverly, Mass.]. Protein content of the cell lysates was determined according to the Bradford method [Bio-Rad, Hercules, Calif.]. Aliquots [40 μg] of whole-cell lysates were separated on 7.5% SDS-PAGE, and electro-transferred onto polyvinylidene membranes [Amersham Pharmacia Biotech, Little Chalfont]. After blocking with 5% nonfat dry milk in TBS-T, the blots were incubated overnight with anti-iNOS [at 1:100] and anti-β-actin [internal control] antibodies. Then blots were washed 3×10 min washes in PBS/tween and subsequently incubated with peroxidase-conjugated anti-mouse IgG secondary antibody at 1:3000. The signals were obtained by enhanced chemiluminescence [Amersham Biosciences], and visualized by exposure to X-ray film. Upon completion of chemiluminescence, equal lane loading was checked by Ponceau S Solution [Sigma, St. Louis, Mo.]. X-ray films were scanned with a computer-assisted densitometer [model G-710; Bio-Rad] to quantify band optical density [Quantity One software; Bio-Rad].

[4] = system: R28 cells; assay: GFAP immunofluorescence, R28; format: cell-based, rat; conditions: for GFAP protein expression (immunofluorescence): vs hypoxic controls
Method: Cells were placed in airtight chambers [BioSpherix, Redfield, N.Y.] and the O2 tension was maintained at 1.2% by using Pro-Ox Model 110 O2 regulator [BioSpherix, Redfield, N.Y.]. The chamber was purged with a gas mixture of 5.32% CO2, and 93.48% N2. […] Müller cells [rMC-1] and […] cells [2×10^4 cells per well] were grown on 8-well chamber slides and cultured in 300 μl of their growing media, which contained YC-1 [25-100 μM] or DMSO [0.2% v/v] and incubated under normoxia or hypoxia for 48 hours at 37° C. YC-1 or DMSO was added 5 minutes prior to the hypoxic incubation. The cells were fixed 48 hours later with 3.7% paraformaldehyde and permeabilized with 0.2% TritonTM X-100 in PBS. The cells were incubated for two hours with anti-GFAP antibody. Negative control experiments consisted of omission of the primary antibody. Cells were then incubated with HRP-conjugate working solution, followed by the addition of the […] solution [TSA Kit#2 and #4 for rMC-1 and […] staining, respectively] at 1:100 dilutions [Molecular Probes, Carlsbad, Calif.]. Digitized images were acquired utilizing AxioVision software [Zeiss Axiovert 135 and AxioCam]. Intensity values of immunofluorescence staining of GFAP in rMC-1 and […] cells was analyzed and quantified using MetamorphTM imaging analysis software version 6.0 [Universal Imaging, Sunnyvale, Calif.]. The staining intensity in our series ranged from a weak blush to moderate or strong. The amount of cells staining with the antibody was further categorized as focal [<10%], patchy [10%-50%], and diffuse [>50%]. For semiquantitative analysis, focal and/or weak staining was considered equivocal staining, and patchy or diffuse staining was subcategorized as either moderate or strong.

[5] = system: human retinal microvascular EC; conditions: refs [16, 17, 18]; cited from earlier work
[6] = system: macrophages; conditions: macrophages stimulated by lipoteichoic acid in vitro, ref [31]; cited from earlier work
[7] = R28, 25 μM YC-1, hypoxia 48 hours

OCc1ccc(-c2nn(Cc3ccccc3)c3ccccc23)o1 [YC-1, 3-(5′-hydroxymethyl-2′-furyl)-1-benzylindazole]
proliferation of hRMVECs in coculture [1]: significantly suppressed | rMC-1 cells-induced hRMVECs migration [2]: significantly attenuated | HIF-1 protein level (Western blot) ([3]; vs DMSO-treated hypoxic cells): inhibited the hypoxia-induced upregulation | PDGF-B protein level (Western blot) ([3]; vs DMSO-treated hypoxic cells): inhibited the hypoxia-induced upregulation | VEGF protein level (Western blot) ([3]; vs DMSO-treated hypoxic cells): inhibited the hypoxia-induced upregulation | iNOS protein level (Western blot) ([3]; vs DMSO-treated hypoxic cells): inhibited the hypoxia-induced upregulation | GFAP protein level (Western blot) ([3]; vs non-treated hypoxic cells): inhibited the hypoxia-induced GFAP protein levels in a dose-dependent manner | GFAP cytoplasmic staining pattern/intensity (immunofluorescence) [4, 7]: stronger diffuse cytoplasmic GFAP staining | GFAP staining vs DMSO-treated hypoxic controls (immunofluorescence) [4, 7]: remarkable inhibition | GFAP protein expression (immunofluorescence) ([4]; R28, 50 μM YC-1, hypoxia): significant inhibitory effects | GFAP protein expression (immunofluorescence) ([4]; R28, 75 μM YC-1, hypoxia): significant inhibitory effects | GFAP staining remaining in cytoplasm (immunofluorescence) ([4]; R28, 100 μM YC-1, hypoxia): few stained regions | GFAP protein levels (quantified staining intensity, FIG. 11C) ([4]; R28, hypoxia, dose-dependent fashion): significantly reduced | HIF-1α, HIF-2α, VEGF, EPO, ET-1, and MMP-9 protein levels [5]: down-regulates | expression of iNOS [6]: potent activity at abrogating the expression of iNOS
